# Test results reported in patent US20180208605A1, “Substituted Aza Compounds as IRAK-4 Inhibitors” (AURIGENE DISCOVERY TECHNOLOGIES LIMITED, priority 2015, published 2018).
# Where a name gives a salt, the structure may show the parent alone.
# Biological target: T1, recombinant IRAK-4 kinase (Homo sapiens, UniProt Q9NWZ3)
# T1 construct: purchased Millipore, USA
# T1 sequence (Q9NWZ3 1-460): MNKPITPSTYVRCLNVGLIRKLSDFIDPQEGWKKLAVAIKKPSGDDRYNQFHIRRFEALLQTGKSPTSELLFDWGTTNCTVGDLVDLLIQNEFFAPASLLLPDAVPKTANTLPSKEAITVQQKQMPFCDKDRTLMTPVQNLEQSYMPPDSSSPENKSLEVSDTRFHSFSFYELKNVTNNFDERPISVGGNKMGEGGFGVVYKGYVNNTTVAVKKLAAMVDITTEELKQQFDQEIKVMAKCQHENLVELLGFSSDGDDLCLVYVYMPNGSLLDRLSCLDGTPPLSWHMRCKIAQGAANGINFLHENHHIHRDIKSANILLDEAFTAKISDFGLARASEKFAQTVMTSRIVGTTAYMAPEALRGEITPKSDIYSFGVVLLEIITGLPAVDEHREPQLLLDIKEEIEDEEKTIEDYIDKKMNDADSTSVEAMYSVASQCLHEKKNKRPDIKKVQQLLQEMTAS
# Assay: IRAK-4 Biochemical Assay (TR-FRET, percent inhibition)
# Settings: TR-FRET, 20 μM ATP, 100 nM Biotin Histone H3; for inhibition at 0.1 µM: read-out: % inhibition of IRAK-4 @0.1 μM, compound at 0.1 μM; for inhibition at 1 µM: read-out: % inhibition of IRAK-4 @ 1 μM, compound at 1 μM
# Method: Compounds were tested for their potential to inhibit IRAK-4 enzyme in a TR-FRET assay using recombinant IRAK-4 kinase from Millipore, USA. The assay buffer was 50 mM Tris-HCl pH 7.5, 20 mM MgCl2, 1 mM EGTA, 2 mM DTT, 3 mM MnCl2 and 0.01% Tween 20.5 ng of IRAK-4 kinase was used for the assay. After pre-incubation of enzyme with test compound for 30 minutes at room temperature, a substrate mixture containing 100 nM Biotin Histone H3 (Millipore, USA) and 20 μM ATP (Sigma, USA) was added and the reaction was incubated for 30 min. Post incubation, the reaction was stopped by the addition of stop mix containing 40 mM EDTA, 1 nM of Europium-Anti-Phospho-Histone H3 (Ser10) antibody (Perkin Elmer, USA) and 20 nM SureLight Allophycocyanin-Streptavidin (Perkin Elmer, USA). The fluorescence emission at 615 nm and 665 nm were measured at an excitation of 340 nm and the percent inhibition was estimated from the ratio of the fluorescence intensities [(F665/F615)×10000].
SMILES,inhibition at 0.1 µM [%],inhibition at 1 µM [%]
"Nc1ccc(-c2cccc(C(=O)Nc3cc4sc(N5CCOCC5)nc4nc3C3CC3)n2)cn1 [Example 51, 6′-amino-N-(5-cyclopropyl-2-morpholinothiazolo[4,5-b]pyridin-6-yl)-[2,3′-bipyridine]-6-carboxamide]",98,
"Nc1cc(-c2cccc(C(=O)Nc3cc4sc(N5CCOCC5)nc4nc3C3CC3)n2)ccn1 [Example 52, 2′-amino-N-(5-cyclopropyl-2-morpholinothiazolo[4,5-b]pyridin-6-yl)-[2,4′-bipyridine]-6-carboxamide]",95,96
"O=C(Nc1cc2sc(N3CCOCC3)nc2nc1N1CCCCC1)c1ccnc(N2CCC(O)C2)n1 (centres unmarked) [Example 53, 2-(3-hydroxypyrrolidin-1-yl)-N-(2-morpholino-5-(piperidin-1-yl)thiazolo[4,5-b]pyridin-6-yl)pyrimidine-4-carboxamide]",90,97
"O=C(Nc1cc2sc(N3CCOCC3)nc2nc1N1CCCCC1)c1cncc(N2CCC(O)C2)n1 (centres unmarked) [Example 54, 6-(3-hydroxypyrrolidin-1-yl)-N-(2-morpholino-5-(piperidin-1-yl)thiazolo[4,5-b]pyridin-6-yl)pyrazine-2-carboxamide hydrochloride]",93,97
"O=C(Nc1cc2sc(N3CCOCC3)nc2nc1N1CCCCC1)c1cccc(N2CCCC(O)C2)n1 (centres unmarked) [Example 55, 6-(3-hydroxypiperidin-1-yl)-N-(2-morpholino-5-(piperidin-1-yl)thiazolo[4,5-b]pyridin-6-yl)picolinamide]",94,98
"O=C(Nc1cc2sc(N3CCOCC3)nc2nc1N1CCCCC1)c1cccc(N2CCC(O)CC2)n1 [Example 56, 6-(4-hydroxypiperidin-1-yl)-N-(2-morpholino-5-(piperidin-1-yl)thiazolo[4,5-b]pyridin-6-yl)picolinamide]",95,96
"CC(N)C(=O)O[C@H]1CCN(c2cccc(C(=O)Nc3cc4sc(N5CCOCC5)nc4nc3N3CCCCC3)n2)C1 (stereo partly drawn) [Example 57, (S)-1-(6-((2-morpholino-5-(piperidin-1-yl)thiazolo[4,5-b]pyridin-6-yl)carbamoyl)pyridin-2-yl)pyrrolidin-3-ylalaninate]",97,98
"CCOC(=O)O[C@H]1CCN(c2cccc(C(=O)Nc3cc4sc(N5CCOCC5)nc4nc3N3CCCCC3)n2)C1 [Example 58, (S)-ethyl (1-(6-((2-morpholino-5-(piperidin-1-yl)thiazolo[4,5-b]pyridin-6-yl)carbamoyl)pyridin-2-yl)pyrrolidin-3-yl)carbonate]",71,96
"O=C(Nc1cc2sc(N3CCOCC3)nc2nc1N1CCCCC1)c1ccnc(N2CC[C@@H](O)C2)n1 [Example 59, (R)-2-(3-hydroxypyrrolidin-1-yl)-N-(2-morpholino-5-(piperidin-1-yl)thiazolo[4,5-b]pyridin-6-yl)pyrimidine-4-carboxamide]",91,99
"O=C(Nc1cc2sc(N3CCOCC3)nc2nc1N1CCCCC1)c1ccnc(N2CC[C@H](O)C2)n1 [Example 60, (S)-2-(3-hydroxypyrrolidin-1-yl)-N-(2-morpholino-5-(piperidin-1-yl)thiazolo[4,5-b]pyridin-6-yl)pyrimidine-4-carboxamide]",88,94
"O=C1CN(c2cccc(C(=O)Nc3cc4sc(N5CCOCC5)nc4nc3N3CCCCC3)n2)CCN1 [Example 61, N-(2-morpholino-5-(piperidin-1-yl)thiazolo[4,5-b]pyridin-6-yl)-6-(3-oxopiperazin-1-yl)picolinamide]",84,91
"O=C(Nc1cc2sc(N3CCOCC3)nc2nc1N1CCCCC1)c1cncc(N2CC[C@@H](O)C2)n1 [Example 62, (R)-6-(3-hydroxypyrrolidin-1-yl)-N-(2-morpholino-5-(piperidin-1-yl)thiazolo[4,5-b]pyridin-6-yl)pyrazine-2-carboxamide]",93,95

# Other lines, results leading:
inhibition at 0.1 µM [%],inhibition at 1 µM [%],SMILES
95,95,"O=C(Nc1cc2sc(N3CCOCC3)nc2nc1N1CCCCC1)c1cncc(N2CC[C@H](O)C2)n1 [Example 63, (S)-6-(3-hydroxypyrrolidin-1-yl)-N-(2-morpholino-5-(piperidin-1-yl)thiazolo[4,5-b]pyridin-6-yl)pyrazine-2-carboxamide]"
74,92,"NCC(=O)O[C@H]1CCN(c2nccc(C(=O)Nc3cc4sc(N5CCOCC5)nc4nc3N3CCCCC3)n2)C1 [Example 64, (S)-1-(4-((2-morpholino-5-(piperidin-1-yl)thiazolo[4,5-b]pyridin-6-yl)carbamoyl)pyrimidin-2-yl)pyrrolidin-3-yl glycinate]"
92,97,"NCC(=O)O[C@H]1CCN(c2cncc(C(=O)Nc3cc4sc(N5CCOCC5)nc4nc3N3CCCCC3)n2)C1 [Example 65, (S)-1-(6-((2-morpholino-5-(piperidin-1-yl)thiazolo[4,5-b]pyridin-6-yl)carbamoyl)pyrazin-2-yl)pyrrolidin-3-yl glycinate]"
90,95,"NCC(=O)OC1CCN(c2cccc(C(=O)Nc3cc4sc(N5CCOCC5)nc4nc3N3CCCCC3)n2)CC1 [Example 66, 1-(6-((2-morpholino-5-(piperidin-1-yl)thiazolo[4,5-b]pyridin-6-yl)carbamoyl)pyridin-2-yl)piperidin-4-yl glycinate]"
100,101,"O=C(Nc1cc2sc(N3CCOCC3)nc2nc1N1CCCCC1)c1cccc(-n2cnc(CO)c2)n1 [Example 67, 6-(4-(hydroxymethyl)-1H-imidazol-1-yl)-N-(2-morpholino-5-(piperidin-1-yl)thiazolo[4,5-b]pyridin-6-yl)picolinamide]"
23,38,"O=C(Nc1cc2sc(N3CCOCC3)nc2nc1N1CCCCC1)c1cc(N2CC[C@H](O)C2)ccn1 [Example 68, (S)-4-(3-hydroxypyrrolidin-1-yl)-N-(2-morpholino-5-(piperidin-1-yl)thiazolo[4,5-b]pyridin-6-yl)picolinamide]"
98,99,"O=C(Nc1cc2sc(N3CCOCC3)nc2nc1N1CCCCC1)c1cccc(-n2cc(CO)cn2)n1 [Example 69, 6-(4-(hydroxymethyl)-1H-pyrazol-1-yl)-N-(2-morpholino-5-(piperidin-1-yl)thiazolo[4,5-b]pyridin-6-yl)picolinamide]"
98,99,"NCc1cn(-c2cccc(C(=O)Nc3cc4sc(N5CCOCC5)nc4nc3N3CCCCC3)n2)cn1 [Example 70, 6-(4-(aminomethyl)-1H-imidazol-1-yl)-N-(2-morpholino-5-(piperidin-1-yl)thiazolo[4,5-b]pyridin-6-yl)picolinamide 2,2,2-trifluoroacetate]"
94,96,"O=C(Nc1cc2sc(N3CCOCC3)nc2nc1N1CCCCC1)c1cccc(N2CCC(C(=O)O)CC2)n1 [Example 71, sodium 1-(6-((2-morpholino-5-(piperidin-1-yl)thiazolo[4,5-b]pyridin-6-yl)carbamoyl)pyridin-2-yl)piperidine-4-carboxylate]"
98,97,"Cc1cc(-c2c[nH]c(C(=O)Nc3cc4sc(N5CCOCC5)nc4nc3N3CC[C@@H](O)C3)n2)ccn1 [Example 72, (R)-N-(5-(3-hydroxypyrrolidin-1-yl)-2-morpholinothiazolo[4,5-b]pyridin-6-yl)-4-(2-methylpyridin-4-yl)-1H-imidazole-2-carboxamide 2,2,2-trifluoroacetate]"
69,97,"Cc1cc(-c2c[nH]c(C(=O)Nc3cc4sc(N5CCOCC5)nc4nc3N3CC[C@@H](O)C3)c2)ccn1 [Example 73, (R)-N-(5-(3-hydroxypyrrolidin-1-yl)-2-morpholinothiazolo[4,5-b]pyridin-6-yl)-4-(2-methylpyridin-4-yl)-1H-pyrrole-2-carboxamide]"
89,95,"COc1ccc(-c2nc(C(=O)Nc3cc4sc(N5CCOCC5)nc4nc3N3CCCCC3)co2)nc1 [Example 74, 2-(5-methoxypyridin-2-yl)-N-(2-morpholino-5-(piperidin-1-yl)thiazolo[4,5-b]pyridin-6-yl)oxazole-4-carboxamide]"
